Experimental data as given in patent US20180353512A1, “COMBINATION THERAPIES FOR TREATING B-CELL MALIGNANCIES” (GILEAD SCIENCES, INC., priority 2015, published 2018).
Read-outs that look alike come from different tables or passages of the source.

Assays:
c-MYC = experiment: Immunohistochemistry of TMD8 xenograft tumor samples; type: in vivo, mice; conditions: PI3Kδ inhibitor 5 mg/kg, Compound B 10 mg/kg; data not shown
Description: (§1) Paraffin sections of the tumor samples were prepared for immunohistochemistry. Slides were prepared with EZ Prep (Ventana Medical Systems) CC1 (Ventana Medical Systems) and rinsed with Reaction Buffer (Ventana Medical Systems). Slides were incubated with ChromoMap Inhibitor (Venatana Medical Systems) and rinsed a Reaction Buffer rinse before incubating with anti-pS6 (S235/236) rabbit monoclonal antibody (Cell Signaling Technology) at 0.02 ug/mL or anti-c-MYC rabbit monoclonal antibody (Abcam Inc.) at 0.3 ug/mL. After 1 hour at room temperature, the slides were incubated sequentially with Anti-Rabbit HQ (Ventana Medical Systems), Anti-HQ HRP (Ventana Medical Systems) hydrogen peroxide CM (Ventana Medical Systems), Copper CM (Ventana Medical Systems), and Hematoxylin II. Slides were imaged using the Leica AT2 digital slide scanner (Leica Microsystems Inc.) and documented in Digital Image Hub (DIH-SlidePath).

p-S6 S235/236 = experiment: as above; type: in vivo, mice; conditions: PI3Kδ inhibitor 5 mg/kg, Compound B 10 mg/kg; data not shown
Description: as §1

p-BTK (Y223) = experiment: Western Blot of TMD8 xenograft tumor samples; type: in vivo, mice; conditions: Compound B 10 mg/kg; normalized to total BTK
Description: (§2) Tumor samples obtained from the study were lysed and Western Blot was performed on the samples to determine the level of BTK and S6 phosphorylation, a downstream effector of PI3K signaling. Western Blots were performed according to the Western Blot procedure described in Example 3B above, using antibodies against p-S6 (S235/236), p-BTK (Y223), BTK and actin. Protein levels were determined using Peggy Sue (ProteinSimple) automated Western Blot system. Normalized AUC were determined for each of the treatment groups: p-BTK (Y223) was normalized to total BTK protein, and p-S6 (S235/236) was normalized to actin.

p-S6 (S235/236) = experiment: Western Blot of TMD8 xenograft tumor samples; type: in vivo, mice; conditions: single agent; PI3Kδ inhibitor 5 mg/kg, Compound B 10 mg/kg
Description: as §2

TMD8 tumor xenograft = TMD8 tumor xenograft model, tumor volume; type: in vivo, mice; parameters: tumor growth: dose or concentration left out as unconfirmed; conditions: oral gavage
Description: A TMD8 tumor xenograft model was generated by introducing cultured TMD8 cells into irradiated mice. All animal experiments were performed in accordance with the Institutional Animal Care and Use Committee (IACUC) protocol. Male CB17-SCID mice were treated with 1.44 Gy whole body irradiation using a ^60Co radiation source, and seventy-four hours later, 1×10^7 TMD8 cells were inoculated subcutaneously into the right flank. When tumors reached a mean volume of 200 mm^3, mice were randomly assigned to groups (n=13). […] All test compounds were formulated in 5% (v/v) N-Methyl-2-pyrrolidone (NMP)/55% (v/v) Polyethylene Glycol 300 (PEG) 300/40% (v/v) Water/1% (w/v) Vitamin E D-α-Tocopherol Polyethylene Glycol 1000 Succinate (TPGS). Tumor volume was calculated using the following formula: (length×width^2)/2, where length is the longest diameter across the tumor and width is the corresponding perpendicular diameter. Tumor growth inhibition rate was calculated using the following formula: 1−(tumor sizeend of compound treatment−tumor sizebeginning of compound treatment/tumor sizeend of vehicle treatment−tumor sizebeginning of vehicle treatment)×100.
The Analysis of Variance model for repeated measure was used to determine the treatment effect on tumor growth. The model fitted on tumor volume included factors of treatment, time, and their interaction. […]

FSCCL^R SFK^HIGH = experiment: CellTiter Glo viability assay after 96 h; type: cell-based
Description: (§3) Idelalisib resistance was established by continuous passaging of a clonal isolate of WSU-FSCCL in the presence of 1 μM idelalisib; clonal isolates from a passage-matched line (FSCCL^S) and idelalisib-resistant line (FSCCL^R) were generated through 2 rounds of single-cell-limiting dilution. Growth inhibition to idelalisib or other inhibitors was performed after 96 h using CellTiter Glo viability assay. Characterization of mutations and gene expression were identified by whole exome sequencing and RNA-Seq, respectively. Whole cell lysates were analyzed by western blots.

[1] = tested on: FSCCL^R clone 2 (PI3KCA N345K); experiment: CellTiter Glo viability assay after 96 h; type: cell-based; conditions: single agent, read-out: EC50
Description: as §3

FSCCL^S = experiment: CellTiter Glo viability assay after 96 h; type: cell-based
Description: as §3

TMD8 = experiment: CellTiter-Glo viability assay at 96 h (Example 5); type: cell-based; conditions: Homo sapiens
Description: (§4) Growth inhibition to Idelalisib or other inhibitors was assessed using CellTiter-Glo viability assay at 96 h. […] Cell lines were analyzed by whole exome sequencing, RNASeq, and phosphoproteomics. Protein expression was measured using Simple Western and SDS/PAGE and western blot. Caspase 3/7 was measured using Caspase-Glo 3/7 assay; apoptosis was measured with Annexin V assay and propidium iodide by flow cytometry.
(§5) Cell viability EC50 was determined using a sigmoidal dose-response (variable slope) curve generated from quadruplicate samples. Statistical significance was determined using the student's t-test for cell viability and two-tailed paired t-test for apoptosis experiments in Prism (GraphPad).

[2] = tested on: TMD8^R (Idelalisib-resistant line); experiment: CellTiter-Glo viability assay at 96 h; type: cell-based; conditions: TMD8^R
Description: as §4, §5
Idelalisib-resistant (TMD8^R) cell line and passage-matched Idelalisib-sensitive (TMD8^S) cell line were generated according to the procedure described in Example 5 above. To characterize the resistant cells, cell viability assays, RNASeq of multidrug resistance (MDR) family of ABC transporter genes (N=33), apoptosis assays, and phosphoprotein analysis were performed. Cell viability was measured using CellTiter-Glo, as described in Example 1A above. Western blot and protein level analysis were performed after treatment with 420 nM idelalisib, 320 nM Compound B and combination thereof, using Peggy Sue (ProteinSimple) automated Western Blot system. Protein concentration (pg/μL) was quantitated using recombinant protein standards. Normalized AUC were determined for each of the treatment groups, normalized to actin. Apoptosis was assessed by propidium iodide and Annexin V/FITC staining and measured by flow cytometry, as described in Example 1A above. Western Blot with anti-p-AKT (S473) antibody and Peggy Sue were used to determine the phosphorylation state of downstream signaling components.

SMILES	c-MYC signal, IHC (c-MYC)	p-S6 signal, IHC (p-S6 S235/236)	reduction of p-BTK in tumors (p-BTK (Y223))	effect on p-S6 in tumors (p-S6 (S235/236))	tumor growth inhibition (TMD8 tumor xenograft; 10 mg/kg BID, P<0.05)	tumor growth (TMD8 tumor xenograft)	EC50 (FSCCL^R SFK^HIGH; read-out: EC50 IDELA (+Dasatinib 10 nM))	EC50 (FSCCL^R SFK^HIGH; read-out: EC50 IDELA (+ENTO 680 nM))	EC50 [1]	EC50 (FSCCL^S; FIG. 16, read-out: EC50, cell viability)	EC50 (FSCCL^S; PI3KCA WT, Table 13, single agent, read-out: EC50)	EC50 (FSCCL^S; Table 14, single agent, read-out: EC50)	EC50 (FSCCL^S; Table 15, single agent, read-out: EC50)	EC50 (TMD8)	inhibition at 1 µM ([2]; at 1 μM, read-out: Growth inhibition)	EC50 ([2]; single agent, read-out: EC50, cell viability)
CC#CC(=O)N1CC[C@@H](n2c(=O)n(-c3ccc(Oc4ccccc4)cc3)c3c(N)ncnc32)C1 [Compound B, 6-amino-9-[(3R)-1-(2-butynoyl)-3-pyrrolidinyl]-7-(4-phenoxyphenyl)-7,9-dihydro-8H-purin-8-one]	did not reduce	did not reduce	35%	did not have an effect	75%	did not inhibit tumor growth										
CCC(Nc1ncnc2[nH]cnc12)c1nc2cccc(F)c2c(=O)n1-c1ccccc1 (stereo not shown) [Idelalisib, 2-(1-((9H-Purin-6-yl)amino)propyl)-5-fluoro-3-phenylquinazolin-4(3H)-one]							1880 nM	2270 nM	> 3000 nM	100 nM	110 nM	213 nM	213 nM	42 nM	19%	> 10000 nM
